What all share (assay type): biochemical
The nature of experiment [1]: Activity against free radicals, Method A (DPPH° test). The note with it: optical density at 513 nm. How it is done:
(§1) The effectiveness of the test substances against free radicals was tested by various chemical and biochemical methods: • Method A A first test was carried out using diphenylpicrylhydrazyl (DPPH°) which is a relatively stable radical that forms a purple-colored solution. The optical density (DO) at 513 nm was determined. • Method B Hydroxyl radicals were released from hydrogen peroxide in the presence of iron(II) ions and EDTA and were used to oxidize deoxyribose. The oxidation product forms a pink-colored compound with thiobarbituric acid. Its concentration corresponds to the optical density at 532 nm. […] The superoxide anions dismute into hydrogen peroxide and oxygen either spontaneously or in the presence of Superoxid Dismutase. The quantity of superoxide anion can be determined by NBT reduction via the optical density at 490 nm. A test was conducted to determine whether fewer superoxide anions are generated or more anions are destroyed in the presence of the test substances. The results are set out in Table 1 and represent the EC50 values in % (w/v).
In general terms: The DPPH test is a chemical assay of radical scavenging.

Experiment [2] is described as follows: Activity against free radicals, Method D (xanthine oxidase, NBT reduction). The note with it: optical density at 490 nm. The protocol:
as §1

A short description of experiment [3]: Activity against free radicals, Method B (hydroxyl radicals, deoxyribose oxidation with EDTA). The following applies: hydrogen peroxide, iron(II) ions and EDTA, optical density at 532 nm. The protocol:
as §1

A short description of experiment [4]: Activity against free radicals, Method C (deoxyribose oxidation in the absence of EDTA). The following applies: as Method B in the absence of EDTA. The protocol:
as §1

As to `O=C1O[C@H]([C@@H](O)CO)C(O)=C1O` [Ascorbic acid], the “Effect against free radicals, Method A, EC50” value in experiment [1] is recorded as 0.0013 % (w/v). Also, the “Effect against free radicals, Method D, EC50” value in experiment [2] is on record as 0.591 % (w/v). The “Effect against free radicals, Method B, EC50” value in experiment [3] is 0.261 % (w/v). For the same compound, in experiment [4], the “Effect against free radicals, Method C, EC50” value was 0.9 % (w/v).
For the compound Tocopherol, in experiment [1], the “Effect against free radicals, Method A, EC50” value was 0.0067 % (w/v). In addition, the “Effect against free radicals, Method D, EC50” value in experiment [2] was “No effect”.
